Test results as given in patent US11660275B2, “Epilepsy treatment agent” (Eisai R&D Management Co., Ltd., priority 2018, dated 2023).

Columns and labels:
mouse kindling models = details: PTL 1; cited from earlier work
[1] = tested on: mouse sound-induced convulsion model; experiment: Mouse sound-induced convulsion model (tonic convulsion, hindlimb extension); type: in vivo; details: 0.5 h, DBA/2 JJcl mice, oral, sound stimulation 30 minutes after administration, % Tonic convulsion, regression analysis
Procedure: A mouse sound-induced convulsion model test was carried out to confirm the suppressive effect on convulsions. Tonic convulsion induced by sound stimulation is used as the index for evaluation in this model (European Journal of Pharmacology, 222, p 193-203(1992)).
Three-week-old male DBA/2 JJcl mice (Clea Japan, Inc.) were provided for the test (n=5 for each treatment, total 2 times). Tonic convulsion induced by sound stimulation was used as the indicator for evaluation (see aforementioned publication).
Compound (Ia) and/or compound (11) was dissolved in a 0.4% methyl cellulose/5% cremophor/5% IN hydrochloric acid/10% dimethyl sulfoxide solution for an administered dose of 20 mL/kg each to prepare samples which were orally administered. A mixed solution without the compound (vehicle) was used as a negative control. Sound stimulation (11 kHz, 115 dB, duration: 30 sec) was carried out 30 minutes after administration of the samples, to induce convulsions. Immediately after cessation of the sound stimulation, tonic convulsion was evaluated by observing the presence or absence of hindlimb extension. […]

Row | SMILES | effect on seizure severity (score) (mouse kindling models) | ED50 [1]
1 | NS(=O)(=O)N[C@H]1c2c(F)cc(F)cc2CC1(F)F [compound (Ia), N-[(1S)-2,2,5,7-tetrafluoro-2,3-dihydro-1H-inden-1-yl]sulfamide] | ameliorating effect | 53 mg/kg
2 | N#Cc1ccccc1-c1cc(-c2ccccn2)cn(-c2ccccc2)c1=O [compound (II), 3-(2-cyanophenyl)-5-(2-pyridyl)-1-phenyl-1,2-dihydropyridin-2-one, reference compound] |  | 0.33 mg/kg
3 | NS(=O)(=O)N[C@H]1c2c(F)c(F)cc(F)c2CC1(F)F [compound (Ic), (+)-N-(2,2,4,6,7-pentafluoro-2,3-dihydro-1H-inden-1-yl)sulfamide] | ameliorating effect | 
4 | NS(=O)(=O)N[C@H]1c2c(F)ccc(F)c2CC1(F)F [compound (Ib), N-[(1S)-2,2,4,7-tetrafluoro-2,3-dihydro-1H-inden-1-yl]sulfamide] | ameliorating effect | 
